The results in this text go back to patent publication US4275067A, “Decarboxyclavulanic acid thio ethers, their preparation and use” (Beecham Group Limited, priority 1977, dated 1981).

Structures are written as SMILES. ≈ marks a conversion by molar mass, not a printed value. Read-outs that look alike come from different tables or passages of the source.

In test [1] the target is T1, β-lactamase (Enterobacter cloacae P 99) (Enterobacter cloacae, UniProt P05364).
T1 construct: Source of β-lactamase; endogenous in cells; host or cells: Enterobacter cloacae P 99
Kind of test: β-lactamase inhibition. To be noted: β-lactamase from Enterobacter cloacae P 99; read-out: I50 (converted). In kind it is biochemical. The procedure:
(§1) I50 values were determined using the process described in Belgian Pat. No. 827,926.

For test [2], the target named is T2, β-lactamase (Staph. aureus Russell) (Staphylococcus aureus, UniProt P00807).
T2 construct: Source of β-lactamase; endogenous in cells; host or cells: Staph. aureus Russell
Description: β-lactamase inhibition. The test is classed as biochemical. To be noted: β-lactamase from Staph. aureus Russell; read-out: I50 (converted). How it is done: as §1

In test [3] the target is β-lactamase (Proteus mirabilis C 889). Description: β-lactamase inhibition. In kind it is biochemical. To be noted: β-lactamase from Proteus mirabilis C 889. How it is done:
as §1

In test [4] the target is T3, β-lactamase (Ps. aeruginosa Dalgleish) (Pseudomonas aeruginosa, UniProt P16897).
T3 construct: Source of β-lactamase; endogenous in cells; host or cells: Ps. aeruginosa Dalgleish
Kind of test: β-lactamase inhibition. In kind it is biochemical. To be noted: β-lactamase from Ps. aeruginosa Dalgleish; read-out: I50 (converted). The procedure: as §1

The target in test [5] is β-lactamase (Pseudomonas aeruginosa A). Kind of test: β-lactamase inhibition. To be noted: β-lactamase from Pseudomonas aeruginosa A. The test is classed as biochemical. How it is done: as §1
Test [6] has as its target T4, β-lactamase (E. coli JT 4) (Escherichia coli, UniProt P62593).
T4 construct: Source of β-lactamase; endogenous in cells; host or cells: E. coli JT 4
Description: β-lactamase inhibition. The test is classed as biochemical. To be noted: β-lactamase from E. coli JT 4; read-out: I50 (converted). How it is done: as §1

The subject of test [7] is Staph. aureus Russell and Klebsiella aerogenes E70. Description: Antibacterial synergy when combined with ampicillin (overall statement). In kind it is cell-based.
The subject of another test is Saccharomyces cerevisiae. Description: Anti-fungal activity, microtitre method. The test is classed as cell-based. To be noted: glucosepeptone broth. From the text: (§2) The anti-fungal activity of the compound of Example 7 was investigated using a microtitre method, with glucosepeptone broth at 1/50 and 1/500 final dilutions of inoculum. The organisms used were Candida albicans and Saccharomyces cerevisiae. The minimum inhibitory concentrations (MIC) are shown below.

For the next test, the system named is Candida albicans. Description: Anti-fungal activity, microtitre method. In kind it is cell-based. To be noted: glucosepeptone broth.
Excerpt: as §2

In the next test the test system is Staph. aureus Russell. Description: Antibacterial synergy with ampicillin. To be noted: ampicillin without inhibitor. In kind it is cell-based.

T1 sequence (P05364 21-381): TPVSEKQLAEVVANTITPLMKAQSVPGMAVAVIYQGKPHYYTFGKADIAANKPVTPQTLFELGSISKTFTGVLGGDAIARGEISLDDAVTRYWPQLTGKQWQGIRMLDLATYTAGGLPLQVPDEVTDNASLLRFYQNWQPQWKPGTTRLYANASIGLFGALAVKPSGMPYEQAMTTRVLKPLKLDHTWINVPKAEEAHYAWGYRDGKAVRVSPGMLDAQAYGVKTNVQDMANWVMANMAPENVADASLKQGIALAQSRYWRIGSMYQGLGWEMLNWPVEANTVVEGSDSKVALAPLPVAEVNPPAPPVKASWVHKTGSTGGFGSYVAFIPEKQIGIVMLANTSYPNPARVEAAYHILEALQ
T2 sequence (P00807 25-281): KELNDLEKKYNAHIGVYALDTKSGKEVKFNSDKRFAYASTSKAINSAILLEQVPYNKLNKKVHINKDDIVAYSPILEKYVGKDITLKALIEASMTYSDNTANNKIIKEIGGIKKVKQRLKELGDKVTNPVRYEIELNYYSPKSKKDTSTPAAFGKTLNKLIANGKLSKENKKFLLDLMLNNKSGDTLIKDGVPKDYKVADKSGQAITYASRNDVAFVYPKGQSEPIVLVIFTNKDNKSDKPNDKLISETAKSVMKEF
T4 sequence (P62593 24-286 limits assumed): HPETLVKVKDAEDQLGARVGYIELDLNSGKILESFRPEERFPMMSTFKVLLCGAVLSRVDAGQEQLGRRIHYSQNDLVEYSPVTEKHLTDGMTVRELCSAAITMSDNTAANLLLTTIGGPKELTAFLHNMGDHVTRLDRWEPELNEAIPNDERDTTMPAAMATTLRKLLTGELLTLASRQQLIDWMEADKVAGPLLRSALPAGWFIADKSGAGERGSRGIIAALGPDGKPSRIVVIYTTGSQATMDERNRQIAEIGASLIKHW
T3 sequence (P16897 18-288): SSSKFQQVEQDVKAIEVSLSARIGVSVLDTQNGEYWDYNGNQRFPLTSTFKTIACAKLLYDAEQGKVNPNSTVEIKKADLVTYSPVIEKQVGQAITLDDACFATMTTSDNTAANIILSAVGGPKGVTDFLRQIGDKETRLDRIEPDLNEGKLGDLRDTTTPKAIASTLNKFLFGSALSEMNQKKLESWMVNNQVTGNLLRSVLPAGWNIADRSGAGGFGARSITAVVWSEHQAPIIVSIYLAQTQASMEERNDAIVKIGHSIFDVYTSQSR

As for `O=C1C[C@H]2O/C(=C\CSc3ccccc3)CN12` [Example 1, (Z, 5R)-3-(2-Phenylthioethylidene)-4-oxa-1-azabicyclo [3.2.0]heptan-7-one], the IC50 is 5340 nM in test [1], 1010 nM in test [2], 2430 nM in test [4] and 1460 nM in test [6]. Further, the I50 in test [3] stood at 4.4 µg/mL; in [5], 2.2 µg/mL. In [7], the antibacterial synergy result was “active as antibacterial synergists”.
With `COC(=O)CCSC/C=C1/CN2C(=O)C[C@H]2O1` [Example 7, (Z)-(5R)-3-[2-(2-Methoxycarbonylethylthio)ethylidene]-4-oxa-1-azabicyclo[3.2.0]hetpan-7-one], the MIC was greater than 100 µg/mL with Saccharomyces cerevisiae (final dilution of inoculum 1/50, read-out: minimum inhibitory concentration (MIC)); 100 µg/mL (≈ 389 µM) with Saccharomyces cerevisiae (final dilution of inoculum 1/500, read-out: minimum inhibitory concentration (MIC)); 12.5 µg/mL (≈ 48.6 µM) in the test with Candida albicans (Candida albicans, final dilution of inoculum 1/50, read-out: minimum inhibitory concentration (MIC)). For the same compound, the “minimum inhibitory concentration (MIC)” value in the test on Candida albicans (final dilution of inoculum 1/500) is 12.5 µg/mL (≈ 48.6 µM).
As for `CC1(C)S[C@@H]2[C@H](NC(=O)[C@H](N)c3ccccc3)C(=O)N2[C@H]1C(=O)O` [ampicillin], in the test on Staph. aureus Russell, the MIC for ampicillin was determined as 250 µg/mL.
